The target of assay [1] is T1, Porcine ventricle myofibrils (ventricular myosin ATPase) (Sus scrofa, UniProt P79293).
T1 construct: Myofibrils from porcine cardiac muscle was isolated from the left ventricle of Yucatan minipigs; tissue Exemplar Genetics; host or cells: left ventricle of Yucatan minipigs, myofibrils prepared in house
Briefly: Myofibril ATPase assay, porcine ventricle myofibrils. It is filed as biochemical, porcine (Yucatan minipigs). The method in brief: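 ATPase activity of porcine left-ventricle myofibrils (Yucatan minipig) was followed through PK-LDH coupling as NADH loss at 340 nm, read every 1.5-2 min for 75 min. Slopes were normalised to vehicle wells and fitted to a 4-parameter logistic model. Values are Y75, the concentration giving a 25% drop in activity, or Y125 for activators.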

For assay [2], the system named is Rabbit Psoas myofibrils (skeletal myosin ATPase). Briefly: Myofibril ATPase assay, rabbit psoas (skeletal) myofibrils. It is filed as biochemical. The method in brief:
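Values are concentrations giving 75% (Y75) or 125% (Y125) of vehicle ATPase activity, from 4-parameter logistic fits of normalized rates. Rates came from linear regression of A340 over 75 min, NADH oxidation coupled to ADP via PK-LDH. Enzyme source: skeletal myofibrils from rabbit psoas, pH 7.0 pCa buffer.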

In assay [3] the test system is Porcine atria myofibrils (atrial myosin ATPase). Briefly: Myofibril ATPase assay, porcine atria myofibrils. Type of assay: biochemical. The essentials: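 Y75 (25% inhibition) or Y125 (activation) values come from 4-parameter logistic fits of vehicle-normalized rates. Rates are linear-regression slopes of NADH absorbance at 340 nm, read kinetically over 75 min, with ADP coupled to NADH oxidation via pyruvate kinase/lactate dehydrogenase.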

[4] abbreviates: porcine ventricle myofibrils, Y75 value.
The mark [5] stands for this setting: rabbit psoas myofibrils, Y75 value.
Setting [6] is: porcine atria myofibrils, Y75 value (75% activity relative to no compound).
[7] abbreviates: Y75 value (no ‡ mark), porcine ventricle myofibrils.
Setting [8] is: Y75 value (no ‡ mark), rabbit psoas myofibrils.
Setting [9] is: Y75 value (no ‡ mark), porcine atria myofibrils.

T1 sequence (P79293 whole entry): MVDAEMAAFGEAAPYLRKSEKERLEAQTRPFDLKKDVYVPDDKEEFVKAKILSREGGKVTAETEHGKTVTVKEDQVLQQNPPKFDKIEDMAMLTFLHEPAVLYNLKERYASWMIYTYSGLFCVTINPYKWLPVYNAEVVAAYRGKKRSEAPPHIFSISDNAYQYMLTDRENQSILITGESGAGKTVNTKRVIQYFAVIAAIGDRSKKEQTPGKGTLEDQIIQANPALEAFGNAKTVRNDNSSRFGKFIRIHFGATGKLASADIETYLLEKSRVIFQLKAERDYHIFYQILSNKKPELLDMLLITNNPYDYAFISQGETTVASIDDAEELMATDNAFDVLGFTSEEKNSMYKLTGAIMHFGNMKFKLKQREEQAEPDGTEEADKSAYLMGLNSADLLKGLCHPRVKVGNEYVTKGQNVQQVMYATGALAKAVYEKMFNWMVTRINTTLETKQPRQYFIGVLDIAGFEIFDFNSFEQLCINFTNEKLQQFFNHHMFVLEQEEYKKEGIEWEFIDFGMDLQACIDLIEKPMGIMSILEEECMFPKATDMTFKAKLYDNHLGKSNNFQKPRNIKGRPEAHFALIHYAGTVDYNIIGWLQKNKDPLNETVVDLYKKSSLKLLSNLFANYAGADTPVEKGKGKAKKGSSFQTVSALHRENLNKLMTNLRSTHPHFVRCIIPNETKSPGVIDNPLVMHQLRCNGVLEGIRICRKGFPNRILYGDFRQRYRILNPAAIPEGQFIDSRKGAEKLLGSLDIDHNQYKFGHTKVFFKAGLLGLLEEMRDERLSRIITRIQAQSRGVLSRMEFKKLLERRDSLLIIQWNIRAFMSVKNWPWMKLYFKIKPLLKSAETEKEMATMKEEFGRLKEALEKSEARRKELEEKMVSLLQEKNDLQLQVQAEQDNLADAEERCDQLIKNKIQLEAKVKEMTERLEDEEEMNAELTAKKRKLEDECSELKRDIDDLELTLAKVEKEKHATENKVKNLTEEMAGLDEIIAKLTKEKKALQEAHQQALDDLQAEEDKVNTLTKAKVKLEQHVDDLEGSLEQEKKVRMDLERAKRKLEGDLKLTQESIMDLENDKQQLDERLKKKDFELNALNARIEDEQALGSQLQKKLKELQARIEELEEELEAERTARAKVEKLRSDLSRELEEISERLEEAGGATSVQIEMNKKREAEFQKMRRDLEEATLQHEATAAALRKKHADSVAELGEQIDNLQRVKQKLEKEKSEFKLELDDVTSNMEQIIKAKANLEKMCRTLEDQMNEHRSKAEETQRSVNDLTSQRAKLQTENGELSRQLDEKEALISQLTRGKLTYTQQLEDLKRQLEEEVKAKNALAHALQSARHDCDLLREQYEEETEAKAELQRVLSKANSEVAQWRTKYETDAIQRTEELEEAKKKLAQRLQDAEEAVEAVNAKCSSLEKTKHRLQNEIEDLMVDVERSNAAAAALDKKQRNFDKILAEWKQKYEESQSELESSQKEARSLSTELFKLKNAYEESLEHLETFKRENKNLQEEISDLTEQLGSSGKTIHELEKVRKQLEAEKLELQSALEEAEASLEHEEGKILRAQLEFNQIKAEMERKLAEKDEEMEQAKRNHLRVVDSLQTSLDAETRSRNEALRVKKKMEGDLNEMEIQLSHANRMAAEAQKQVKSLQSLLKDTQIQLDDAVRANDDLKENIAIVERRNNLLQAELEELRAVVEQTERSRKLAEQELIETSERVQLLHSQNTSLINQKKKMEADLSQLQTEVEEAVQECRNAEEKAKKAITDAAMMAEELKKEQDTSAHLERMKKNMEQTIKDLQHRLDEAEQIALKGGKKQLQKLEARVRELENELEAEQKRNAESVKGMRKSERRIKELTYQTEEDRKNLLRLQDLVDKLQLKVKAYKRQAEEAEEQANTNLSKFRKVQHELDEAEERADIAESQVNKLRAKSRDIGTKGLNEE

On to `Cc1cnncc1[C@H](C)NC(=O)Cc1c(C)c2c(C)nccc2[nH]c1=O` [compound 481], for which the “Ventricular EC25” value in assay [1] (setting [4]) was found to be 100.00 µM. In addition, in assay [2] (setting [5]), the “Skeletal EC25” value is 100.00 µM. The “Atrial EC25” value in assay [3] (setting [6]) is 100.00 µM.
As for `Cc1c(C(F)(F)C(=O)N[C@H](C)c2ncc(C#N)cc2F)c(=O)[nH]c2ccnc(C#N)c12` (single isomer, unassigned) [compound 3510], in assay [1] (setting [4]), the “Ventricular EC25” value came to 1.30 µM. In addition, in assay [2] (setting [5]), the “Skeletal EC25” value was found to be 0.16 µM. The “Atrial EC25” value in assay [3] (setting [6]) was 0.44 µM.
On to `Cc1nc(C#N)ccc1[C@@H](C)NC(=O)Cc1c(C)c2cc(F)ccc2[nH]c1=O` [compound 1050], for which the “Ventricular EC25” value in assay [1] (setting [7]) was determined as 2.36 µM. In assay [2] (setting [8]), the “Skeletal EC25” value amounted to 3.4 µM. In addition, in assay [3] (setting [9]), the “Atrial EC25” value was found to be 0.22 µM.
Taken in the same sequence, the figures for `Cc1c(CC(=O)N[C@@H](C)c2ncc(C#N)cc2F)c(=O)[nH]c2ccc(Cl)cc12` (single isomer, unassigned) [compound 2050] were 0.18 µM, 0.04 µM and 0.09 µM.
On to `C[C@H](NC(=O)Cc1cc2c(F)c(F)ccc2[nH]c1=O)c1cc(C#N)c(F)s1` (single isomer, unassigned) [compound 4003], for which the “Ventricular EC25” value in assay [1] (Y75 value: concentration required to reduce myosin ATP-ase activity by 25%, Porcine Ventricle Prep pCa 25 GEOM_MEAN) turned out to be 100.00 µM. In addition, in assay [2] (Y75 value: concentration required to reduce myosin ATP-ase activity by 25%, Rabbit Psoas Prep pCa 25 GEOM_MEAN), the “Skeletal EC25” value stood at 1.06 µM. Further, the “Atrial EC25” value in assay [3] (Y75 value: concentration required to reduce myosin ATP-ase activity by 25%, Porcine Atria Prep pCa 25 GEOM_MEAN) is 100.00 µM.
With `Cc1nc(C#N)cnc1[C@H](C)NC(=O)C(F)(F)c1c(C)c2c(C)nccc2[nH]c1=O` (single isomer, unassigned) [compound 3505], the “Ventricular EC25” value in assay [1] (setting [4]) is 13.00 µM. Besides, the “Skeletal EC25” value in assay [2] (setting [5]) turned out to be 4.70 µM. Also, the “Atrial EC25” value in assay [3] (setting [6]) was 1.90 µM.
Taken in the same sequence, the figures for `Cc1nccc2[nH]c(=O)c(CC(=O)N[C@H](C)c3ccc(O)cc3)c(C)c12` (single isomer, unassigned) [compound 328] were 100.00 µM, 100.00 µM and 100.00 µM.
Taken in the same sequence, the figures for `Cc1nccc2[nH]c(=O)c(CC(=O)N[C@@H](C)c3ccc(F)cc3F)c(C#N)c12` [compound 159] were 6.35 µM, 0.11 µM and 1.17 µM.
As for `Cc1c(CC(=O)N[C@H](CO)c2ccc(C#N)cc2F)c(=O)[nH]c2cnnc(C#N)c12` [compound 175], the “Ventricular EC25” value in assay [1] (setting [4]) stood at 100.00 µM. The “Skeletal EC25” value in assay [2] (setting [5]) amounted to 100.00 µM. Besides, the “Atrial EC25” value in assay [3] (setting [6]) was found to be 100.00 µM.
Regarding `Cc1c(CC(=O)N[C@@H](C)c2ccc(F)cc2F)c(=O)[nH]c2ccnnc12` [compound 418], the “Ventricular EC25” value in assay [1] (setting [4]) turned out to be 48.43 µM. The “Skeletal EC25” value in assay [2] (setting [5]) is 2.19 µM. Further, the “Atrial EC25” value in assay [3] (setting [6]) stood at 2.66 µM.
On to `COc1nccc2[nH]c(=O)c([C@@H](C)C(=O)N[C@@H](C)c3ccc(F)cc3F)c(C(F)(F)F)c12` (single isomer, unassigned) [compound 425], for which the “Ventricular EC25” value in assay [1] (setting [4]) is 100.00 µM. In addition, the “Skeletal EC25” value in assay [2] (setting [5]) is 1.31 µM. For the same compound, the “Atrial EC25” value in assay [3] (setting [6]) was determined as 94.54 µM.
Regarding `Cc1c(CC(=O)N[C@H](CO)c2ncc(F)cc2F)c(=O)[nH]c2ccc(C#N)nc12` [compound 259], the “Ventricular EC25” value in assay [1] (setting [4]) is 100.00 µM. In addition, the “Skeletal EC25” value in assay [2] (setting [5]) came out at 100.00 µM. Besides, the “Atrial EC25” value in assay [3] (setting [6]) stood at 100.00 µM.
`Cc1ccc([C@H](CO)NC(=O)Cc2c(C)c3c(C)nccc3[nH]c2=O)cc1` (single isomer, unassigned) [compound 336]: the “Ventricular EC25” value in assay [1] (setting [4]) was 100.00 µM. In addition, the “Skeletal EC25” value in assay [2] (setting [5]) turned out to be 100.00 µM. Moreover, the “Atrial EC25” value in assay [3] (setting [6]) is 69.32 µM.
As for `Cc1c(CC(=O)N[C@@H](C)c2ccc(C#N)cc2F)c(=O)[nH]c2ccc(F)c(C3CC3)c12` [compound 70], the “Ventricular EC25” value in assay [1] (setting [7]) was 100.00 µM. Also, the “Skeletal EC25” value in assay [2] (setting [8]) was 0.03 µM. In addition, the “Atrial EC25” value in assay [3] (setting [9]) turned out to be 100.00 µM.
As to `Cc1c(CC(=O)N[C@@H](C)c2ncc(C#N)cc2F)c(=O)[nH]c2ccc(O)nc12` [compound 166], the “Ventricular EC25” value in assay [1] (setting [4]) came out at 100.00 µM. Moreover, in assay [2] (setting [5]), the “Skeletal EC25” value turned out to be 3.22 µM. Further, the “Atrial EC25” value in assay [3] (setting [6]) stood at 1.91 µM.
Consider `Cc1c(CC(=O)N[C@@H](C)c2ccc(C#N)cn2)c(=O)[nH]c2cc(F)c(F)cc12` [compound 1113], for which the “Ventricular EC25” value in assay [1] (setting [7]) came out at 2.55 µM. In addition, the “Skeletal EC25” value in assay [2] (setting [8]) was determined as 0.47 µM. In addition, in assay [3] (setting [9]), the “Atrial EC25” value stood at 0.97 µM.
Turning to `Cc1nccc2[nH]c(=O)c([C@H](C)C(=O)N[C@H](C)c3ccc(C#N)cc3F)c(C)c12` (single isomer, unassigned) [compound 184], the “Ventricular EC25” value in assay [1] (setting [4]) came to 100.00 µM. In assay [2] (setting [5]), the “Skeletal EC25” value was found to be 100.00 µM. In addition, the “Atrial EC25” value in assay [3] (setting [6]) came to 100.00 µM.
With `Cc1c(CC(=O)N[C@H](CO)c2ncc(F)cc2F)c(=O)[nH]c2ccnc(C#N)c12` [compound 261], the “Ventricular EC25” value in assay [1] (setting [4]) amounted to 100.00 µM. Further, the “Skeletal EC25” value in assay [2] (setting [5]) was 26.68 µM. Further, the “Atrial EC25” value in assay [3] (setting [6]) came to 100.00 µM.
Take `Cc1c(CC(=O)N[C@@H](C)c2ccc(F)cc2F)c(=O)[nH]c2ccc(OCC(F)(F)F)nc12` [compound 400]: in assay [1] (setting [4]), the “Ventricular EC25” value was found to be 100.00 µM. Moreover, the “Skeletal EC25” value in assay [2] (setting [5]) amounted to 0.36 µM. Besides, the “Atrial EC25” value in assay [3] (setting [6]) came out at 1.55 µM.
As for `Cc1nccc2[nH]c(=O)c(CC(=O)Nc3c[nH]c4cc(F)cc(F)c34)c(C)c12` [compound 228], in assay [1] (setting [4]), the “Ventricular EC25” value worked out at 100.00 µM. For the same compound, the “Skeletal EC25” value in assay [2] (setting [5]) was found to be 100.00 µM. The “Atrial EC25” value in assay [3] (setting [6]) amounted to 100.00 µM.
As to `Cc1c(CC(=O)N[C@@H](C)c2ncc(F)cc2F)c(=O)[nH]c2ccnc(C(F)(F)F)c12` (single isomer, unassigned) [compound 266], the “Ventricular EC25” value in assay [1] (setting [4]) is 1.11 µM. The “Skeletal EC25” value in assay [2] (setting [5]) is 0.21 µM. Also, the “Atrial EC25” value in assay [3] (setting [6]) came out at 0.25 µM.
Taken in the same sequence, the figures for `CCOc1ccc2[nH]c(=O)c(CC(=O)N[C@@H](C)c3ccc(F)cc3F)c(C)c2n1` [compound 414] were 13.93 µM, 0.03 µM and 0.16 µM.
For the compound `N#Cc1ccc([C@@H](CO)NC(=O)Cc2c(C3CC3)c3cc(F)ccc3[nH]c2=O)c(F)c1` [compound 75], the “Ventricular EC25” value in assay [1] (setting [7]) worked out at 0.61 µM. In addition, the “Skeletal EC25” value in assay [2] (setting [8]) came out at 15.21 µM. For the same compound, the “Atrial EC25” value in assay [3] (setting [9]) is 59.37 µM.
Taken in the same sequence, the figures for `C[C@@H](NC(=O)Cc1c(C2CC2)c2c(F)c(F)ccc2[nH]c1=O)c1ccc(C#N)cn1` [compound 25] were 100.00 µM, 1.68 µM and 100.00 µM.
Take `Cc1c(CC(=O)N[C@@H](C)c2ccc(F)cc2F)c(=O)[nH]c2ccnc(I)c12` [compound 353]: the “Ventricular EC25” value in assay [1] (setting [4]) stood at 0.31 µM. The “Skeletal EC25” value in assay [2] (setting [5]) came out at 0.06 µM. For the same compound, the “Atrial EC25” value in assay [3] (setting [6]) amounted to 0.14 µM.
For `Cc1nccc2[nH]c(=O)c(CC(=O)N[C@@H](C)c3ccc(O)nc3)c(C)c12` (single isomer, unassigned) [compound 296], in that order: 100.00 µM, 100.00 µM and 88.12 µM.
Taken in the same sequence, the figures for `Cc1c(CC(=O)N[C@H](CO)c2ncccc2F)c(=O)[nH]c2ccnc(C#N)c12` (single isomer, unassigned) [compound 235] were 100.00 µM, 100.00 µM and 100.00 µM.
